# Experimental data taken from PubChem BioAssay AID192 (DTP/NCI, 2004).
# Several values for one entry are separate records, joined by “and”; a condition that tells them apart may be missing. Equal entries are not always repeated. Inconclusive results and toxic doses are left out.
# Test system: BDF1 mice, B16 melanoma ip, median survival T/C
# Assay: NCI In Vivo Anticancer Drug Screen. Data for tumor model B16 Melanoma (intraperitoneal) in B6D2F1 (BDF1) mice
# Conditions: endpoint: median survival time, higher = longer survival
# Description: The antitumor activity of compounds was measured in mice bearing transplantable tumors. Survival or tumor size were measured and the results are expressed as the measurement made in the treated group (T) divided by the measurement made in the vehicle treated control group (C). The tumor model used in this assay is B16 Melanoma (intraperitoneal) in B6D2F1 (BDF1) mice
# [1] = dose: 100.0 mg/kg/injection, schedule: Q04DX003 (ip), vehicle: Klucel (hydroxypropylcellulose) (HPC)
# [2] = dose: 100.0 mg/kg/injection, schedule: Q01DX009 (ip), vehicle: saline with Tween-80
# [3] = dose: 200.0 mg/kg/injection, schedule: Q01DX009 (ip), vehicle: saline with Tween-80
# [4] = dose: 400.0 mg/kg/injection, schedule: Q01DX009 (ip), vehicle: saline with Tween-80
smiles,measurement,setting,value
CC(Cc1ccccc1)NC1CC2CCC1C2 (stereo not given),T/C,"dose: 12.5 mg/kg/injection, schedule: Q01DX009 (ip), vehicle: saline",101 % of control
same,T/C,"dose: 25.0 mg/kg/injection, schedule: Q01DX009 (ip), vehicle: saline",102 % of control
same,T/C,"dose: 50.0 mg/kg/injection, schedule: Q01DX009 (ip), vehicle: saline",101 % of control
CCC1CC2CN(CCc3c([nH]c4ccccc34)C(C(=O)OC)(c3cc4c(cc3OC)N(C)C3C(O)(C(=O)OC)C(OC(C)=O)C5(CC)C=CCN6CCC43C65)C2)C1 (stereo not given),T/C,"dose: 0.05 mg/kg/injection, schedule: Q01DX009 (ip), vehicle: Klucel (hydroxypropylcellulose) (HPC)",111 % of control
same,T/C,"dose: 0.06 mg/kg/injection, schedule: Q01DX009 (ip), vehicle: water",109 % of control and 110 % of control
same,T/C,"dose: 0.13 mg/kg/injection, schedule: Q01DX009 (ip), vehicle: water",105 % of control and 114 % of control
same,T/C,"dose: 0.25 mg/kg/injection, schedule: Q01DX009 (ip), vehicle: water",173 % of control
same,T/C,"dose: 0.4 mg/kg/injection, schedule: Q01DX009 (ip), vehicle: Klucel (hydroxypropylcellulose) (HPC)",192 % of control
same,T/C,"dose: 0.5 mg/kg/injection, schedule: Q01DX009 (ip), vehicle: water",210 % of control
same,T/C,"dose: 0.5 mg/kg/injection, schedule: Q04DX003 (ip), vehicle: water",166 % of control
same,T/C,"dose: 0.8 mg/kg/injection, schedule: Q01DX009 (ip), vehicle: Klucel (hydroxypropylcellulose) (HPC)",224 % of control
same,T/C,"dose: 1.0 mg/kg/injection, schedule: Q01DX009 (ip), vehicle: water",151 % of control and 163 % of control and 174 % of control
same,T/C,"dose: 1.0 mg/kg/injection, schedule: Q04DX003 (ip), vehicle: water",206 % of control
same,T/C,"dose: 1.6 mg/kg/injection, schedule: Q01DX009 (ip), vehicle: Klucel (hydroxypropylcellulose) (HPC)",229 % of control
same,T/C,"dose: 2.0 mg/kg/injection, schedule: Q01DX009 (ip), vehicle: water",170 % of control and 178 % of control
same,T/C,"dose: 2.0 mg/kg/injection, schedule: Q04DX003 (ip), vehicle: water",234 % of control
O=C1CC(CO)CN1CCc1ccccc1 (stereo not given),T/C,[1],110 % of control
same,T/C,"dose: 200.0 mg/kg/injection, schedule: Q04DX003 (ip), vehicle: Klucel (hydroxypropylcellulose) (HPC)",107 % of control
same,T/C,"dose: 400.0 mg/kg/injection, schedule: Q04DX003 (ip), vehicle: Klucel (hydroxypropylcellulose) (HPC)",102 % of control
CC1CN(CCC#N)CC(C)O1 (stereo not given),T/C,"dose: 100.0 mg/kg/injection, schedule: Q01DX009 (ip), vehicle: saline",95 % of control
same,T/C,"dose: 200.0 mg/kg/injection, schedule: Q01DX009 (ip), vehicle: saline",95 % of control
CCCCCCCCCCCCCCCC#N,T/C,"dose: 25.0 mg/kg/injection, schedule: Q04DX003 (ip), vehicle: Klucel (hydroxypropylcellulose) (HPC)",99 % of control
same,T/C,"dose: 50.0 mg/kg/injection, schedule: Q04DX003 (ip), vehicle: Klucel (hydroxypropylcellulose) (HPC)",96 % of control
same,T/C,[1],92 % of control
Nc1nc(N)nc(-c2ccc([N+](=O)[O-])o2)n1,T/C,[2],103 % of control
same,T/C,[3],97 % of control
same,T/C,[4],90 % of control
Oc1cccnc1CN1CCOCC1,T/C,[2],106 % of control
same,T/C,[3],109 % of control
same,T/C,[4],100 % of control
